{"source": "ChEMBL document CHEMBL4354830", "about": "“Discovery of Benzo[cd]indol-2(1H)-ones and Pyrrolo[4,3,2-de]quinolin-2(1H)-ones as Bromodomain and Extra-Terminal Domain (BET) Inhibitors with Selectivity for the First Bromodomain with Potential High Efficiency against Acute Gouty Arthritis” (J Med Chem, 2019)", "key": {"[1]": {"biological_target": "T1, Bromodomain-containing protein 4 (Homo sapiens, UniProt O60885)", "experiment": "Displacement of tetra-acetylated histone H4 peptide (1-21) from recombinant human N-terminal His-tagged BRD4 BD1 (44 to 170 residues) expressed in Escherichia coli incubated for 30 mins followed by further incubation with tetra-acetylated histone H4 peptide (1-21) for 30 mins by Alphascreen assay"}, "[2]": {"biological_target": "T1, Bromodomain-containing protein 4", "experiment": "Displacement of tetra-acetylated histone H4 peptide (1-21) from recombinant human N-terminal His-tagged BRD4 BD2 (349 to 460 residues) expressed in Escherichia coli incubated for 30 mins followed by further incubation with tetra-acetylated histone H4 peptide (1-21) for 30 mins by Alphascreen assay"}, "RAW264.7": {"system": "RAW264.7", "experiment": "Inhibition of LPS-induced NO overproduction in mouse RAW264.7 cells at 1 uM incubated for 2 hrs followed by LPS stimulation and measured after 22 hrs by Griess reagent based assay relative to control", "assay_type": "functional", "details": "Mus musculus, RAW264.7"}, "[3]": {"experiment": "Permeability of compound at 10 uM by PAMPA assay", "assay_type": "ADME", "details": "read-out: permeability"}, "[4]": {"biological_target": "T1, Bromodomain-containing protein 4", "experiment": "Binding affinity to recombinant human N-terminal His-tagged BRD4 BD1 (44 to 170 residues) expressed in Escherichia coli assessed as change in melting temperature at 10 uM by SYPRO Orange based differential scanning fluorimetry"}, "[5]": {"biological_target": "T2, Bromodomain-containing protein 9 (Homo sapiens) (UniProt Q9H8M2)", "T2 sequence (whole entry)": "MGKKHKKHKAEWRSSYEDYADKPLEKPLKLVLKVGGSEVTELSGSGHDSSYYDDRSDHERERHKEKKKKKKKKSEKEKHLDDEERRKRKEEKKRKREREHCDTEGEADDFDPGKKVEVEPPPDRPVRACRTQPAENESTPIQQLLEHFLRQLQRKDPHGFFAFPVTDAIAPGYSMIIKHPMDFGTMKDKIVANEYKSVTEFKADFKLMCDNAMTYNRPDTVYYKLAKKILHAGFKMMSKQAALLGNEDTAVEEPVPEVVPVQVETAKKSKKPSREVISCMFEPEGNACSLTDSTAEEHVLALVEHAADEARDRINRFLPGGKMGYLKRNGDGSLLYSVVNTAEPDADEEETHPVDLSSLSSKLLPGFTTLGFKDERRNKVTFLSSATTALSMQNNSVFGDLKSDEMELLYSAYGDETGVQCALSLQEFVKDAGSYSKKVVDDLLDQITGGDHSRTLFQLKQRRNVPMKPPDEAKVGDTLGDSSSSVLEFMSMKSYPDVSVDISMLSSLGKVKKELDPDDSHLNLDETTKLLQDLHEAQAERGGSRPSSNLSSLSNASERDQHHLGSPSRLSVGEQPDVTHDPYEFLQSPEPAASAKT", "experiment": "Binding affinity to BRD9 BD1 (unknown origin) assessed as change in melting temperature at 10 uM by SYPRO Orange based differential scanning fluorimetry"}, "[6]": {"biological_target": "Chromatin remodeling regulator CECR2 (Homo sapiens) (UniProt Q9BXF3)", "sequence (Q9BXF3 whole entry, looked up)": "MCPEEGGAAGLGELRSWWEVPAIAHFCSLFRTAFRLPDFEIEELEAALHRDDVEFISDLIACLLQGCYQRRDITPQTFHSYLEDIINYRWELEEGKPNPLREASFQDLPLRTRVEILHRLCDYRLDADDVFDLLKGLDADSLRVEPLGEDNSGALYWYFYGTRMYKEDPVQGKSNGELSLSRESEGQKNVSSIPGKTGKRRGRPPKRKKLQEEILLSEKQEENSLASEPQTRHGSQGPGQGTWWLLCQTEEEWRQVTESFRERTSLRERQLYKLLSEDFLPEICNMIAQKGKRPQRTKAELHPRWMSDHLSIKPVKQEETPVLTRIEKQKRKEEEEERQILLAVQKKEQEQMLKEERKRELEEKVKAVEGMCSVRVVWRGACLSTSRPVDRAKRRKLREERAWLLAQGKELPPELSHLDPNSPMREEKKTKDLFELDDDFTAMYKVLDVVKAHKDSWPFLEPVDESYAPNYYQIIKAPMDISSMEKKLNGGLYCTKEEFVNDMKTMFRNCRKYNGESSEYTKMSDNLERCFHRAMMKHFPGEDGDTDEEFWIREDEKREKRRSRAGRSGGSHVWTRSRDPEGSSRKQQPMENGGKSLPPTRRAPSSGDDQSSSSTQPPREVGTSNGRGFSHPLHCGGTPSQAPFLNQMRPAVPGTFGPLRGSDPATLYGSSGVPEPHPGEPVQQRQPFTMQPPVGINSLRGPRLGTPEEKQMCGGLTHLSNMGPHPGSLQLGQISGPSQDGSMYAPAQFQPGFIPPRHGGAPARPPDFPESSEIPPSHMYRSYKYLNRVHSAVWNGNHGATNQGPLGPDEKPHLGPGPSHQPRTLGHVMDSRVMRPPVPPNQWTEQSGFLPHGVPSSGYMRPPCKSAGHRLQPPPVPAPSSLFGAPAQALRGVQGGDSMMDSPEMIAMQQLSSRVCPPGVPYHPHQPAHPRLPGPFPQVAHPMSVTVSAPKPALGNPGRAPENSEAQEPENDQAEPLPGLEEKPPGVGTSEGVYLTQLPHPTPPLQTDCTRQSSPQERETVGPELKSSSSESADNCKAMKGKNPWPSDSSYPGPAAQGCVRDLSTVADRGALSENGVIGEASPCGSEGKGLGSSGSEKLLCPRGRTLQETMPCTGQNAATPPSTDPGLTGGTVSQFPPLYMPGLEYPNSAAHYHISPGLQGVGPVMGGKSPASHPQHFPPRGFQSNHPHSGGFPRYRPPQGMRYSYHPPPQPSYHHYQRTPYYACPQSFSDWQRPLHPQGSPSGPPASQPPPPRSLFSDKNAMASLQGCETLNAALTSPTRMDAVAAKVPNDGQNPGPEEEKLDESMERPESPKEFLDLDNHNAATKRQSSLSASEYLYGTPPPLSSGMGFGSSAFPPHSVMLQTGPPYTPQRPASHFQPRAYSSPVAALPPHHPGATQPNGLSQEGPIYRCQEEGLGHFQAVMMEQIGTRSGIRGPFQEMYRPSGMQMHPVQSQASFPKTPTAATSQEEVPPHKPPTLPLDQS", "experiment": "Binding affinity to CECR2 (unknown origin) assessed as change in melting temperature at 10 uM by SYPRO Orange based differential scanning fluorimetry"}, "[7]": {"biological_target": "CREB-binding protein (Homo sapiens) (UniProt Q92793)", "sequence (Q92793 2-2442 limits assumed)": "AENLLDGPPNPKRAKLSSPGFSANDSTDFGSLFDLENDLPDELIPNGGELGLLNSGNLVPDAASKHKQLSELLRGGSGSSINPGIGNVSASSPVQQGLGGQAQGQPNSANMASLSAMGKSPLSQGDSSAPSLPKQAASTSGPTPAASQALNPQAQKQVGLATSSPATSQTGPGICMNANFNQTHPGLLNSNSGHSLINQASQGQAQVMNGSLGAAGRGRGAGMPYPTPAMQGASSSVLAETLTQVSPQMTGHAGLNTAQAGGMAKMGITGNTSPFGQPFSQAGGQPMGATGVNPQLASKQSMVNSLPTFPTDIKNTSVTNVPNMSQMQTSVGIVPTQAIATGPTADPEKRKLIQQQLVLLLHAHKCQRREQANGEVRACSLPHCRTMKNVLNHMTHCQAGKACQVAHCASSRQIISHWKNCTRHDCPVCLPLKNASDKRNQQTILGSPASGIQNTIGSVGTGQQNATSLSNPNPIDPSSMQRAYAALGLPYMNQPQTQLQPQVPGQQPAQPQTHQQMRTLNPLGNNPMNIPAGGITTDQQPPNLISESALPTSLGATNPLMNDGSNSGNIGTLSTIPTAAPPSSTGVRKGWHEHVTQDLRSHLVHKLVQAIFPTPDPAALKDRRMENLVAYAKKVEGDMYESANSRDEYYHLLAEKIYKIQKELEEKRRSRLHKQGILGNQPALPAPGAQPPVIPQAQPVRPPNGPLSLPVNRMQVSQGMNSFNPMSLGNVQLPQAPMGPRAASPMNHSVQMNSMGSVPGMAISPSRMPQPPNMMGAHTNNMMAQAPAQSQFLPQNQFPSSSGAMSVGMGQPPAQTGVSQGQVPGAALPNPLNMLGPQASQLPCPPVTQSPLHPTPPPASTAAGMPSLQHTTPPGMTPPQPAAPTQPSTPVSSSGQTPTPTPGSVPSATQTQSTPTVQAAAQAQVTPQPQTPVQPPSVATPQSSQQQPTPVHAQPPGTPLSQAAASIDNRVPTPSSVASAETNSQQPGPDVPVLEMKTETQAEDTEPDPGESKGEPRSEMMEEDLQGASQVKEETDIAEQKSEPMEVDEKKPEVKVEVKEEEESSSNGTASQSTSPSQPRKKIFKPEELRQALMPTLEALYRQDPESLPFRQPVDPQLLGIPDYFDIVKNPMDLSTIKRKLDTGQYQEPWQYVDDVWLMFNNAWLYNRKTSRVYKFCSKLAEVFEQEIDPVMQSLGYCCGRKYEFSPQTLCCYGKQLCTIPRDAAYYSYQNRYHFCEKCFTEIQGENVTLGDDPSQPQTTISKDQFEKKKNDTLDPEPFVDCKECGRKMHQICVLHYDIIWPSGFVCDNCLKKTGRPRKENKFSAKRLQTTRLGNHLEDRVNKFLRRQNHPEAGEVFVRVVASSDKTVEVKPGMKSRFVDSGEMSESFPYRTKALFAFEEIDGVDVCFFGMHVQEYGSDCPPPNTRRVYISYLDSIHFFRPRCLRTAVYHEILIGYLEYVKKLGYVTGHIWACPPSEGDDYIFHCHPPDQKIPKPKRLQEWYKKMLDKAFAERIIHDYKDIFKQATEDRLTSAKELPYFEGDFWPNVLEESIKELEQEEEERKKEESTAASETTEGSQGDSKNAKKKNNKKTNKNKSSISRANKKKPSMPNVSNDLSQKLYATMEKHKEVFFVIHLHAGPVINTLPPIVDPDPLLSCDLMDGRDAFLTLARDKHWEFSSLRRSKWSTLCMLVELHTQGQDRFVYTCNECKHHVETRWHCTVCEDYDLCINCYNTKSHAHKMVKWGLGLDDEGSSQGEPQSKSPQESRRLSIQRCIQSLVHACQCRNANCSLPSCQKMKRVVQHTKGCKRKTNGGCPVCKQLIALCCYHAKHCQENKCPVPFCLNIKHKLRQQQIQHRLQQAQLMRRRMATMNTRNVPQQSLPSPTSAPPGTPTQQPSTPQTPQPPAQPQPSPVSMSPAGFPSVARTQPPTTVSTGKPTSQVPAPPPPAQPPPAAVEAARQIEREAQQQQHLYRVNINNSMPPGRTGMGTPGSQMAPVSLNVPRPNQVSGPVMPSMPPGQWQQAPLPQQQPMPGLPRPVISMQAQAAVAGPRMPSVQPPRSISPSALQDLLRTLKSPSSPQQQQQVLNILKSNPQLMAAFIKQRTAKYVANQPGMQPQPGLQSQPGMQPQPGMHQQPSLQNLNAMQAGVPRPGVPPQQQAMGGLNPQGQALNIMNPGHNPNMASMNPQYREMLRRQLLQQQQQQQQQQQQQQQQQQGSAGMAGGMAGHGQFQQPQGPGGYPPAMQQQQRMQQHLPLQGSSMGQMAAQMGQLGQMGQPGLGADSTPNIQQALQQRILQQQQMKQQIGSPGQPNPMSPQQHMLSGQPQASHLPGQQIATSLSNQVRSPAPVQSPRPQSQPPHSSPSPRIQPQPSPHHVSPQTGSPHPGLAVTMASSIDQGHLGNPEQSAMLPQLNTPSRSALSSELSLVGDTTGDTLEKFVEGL", "experiment": "Binding affinity to CREBBP (unknown origin) assessed as change in melting temperature at 10 uM by SYPRO Orange based differential scanning fluorimetry"}}, "data": [{"smiles": "COc1ccccc1S(=O)(=O)Nc1ccc2c3c(cc(-c4ccc(C)o4)cc13)C(=O)N2C", "values": [{"measurement": "IC50", "setting": "[1]", "result": 54.8, "unit": "nM"}, {"measurement": "IC50", "setting": "[2]", "result": 47000, "unit": "nM"}, {"measurement": "inhibition at 1 µM", "setting": "RAW264.7", "result": 58.5, "unit": "%"}, {"measurement": "Papp at 10 µM", "setting": "[3]", "result": 0.006, "unit": "×10⁻⁶ cm/s"}]}, {"smiles": "CN1C(=O)c2cccc3c(NCc4ccccc4)ccc1c23", "values": [{"measurement": "ΔTm", "setting": "[4]", "result": 2.7, "unit": "°C"}, {"measurement": "ΔTm", "setting": "[5]", "result": -0.9, "unit": "°C"}, {"measurement": "ΔTm", "setting": "[6]", "result": 1.92, "unit": "°C"}, {"measurement": "ΔTm", "setting": "[7]", "result": 1.6, "unit": "°C"}]}, {"smiles": "CN1C(=O)c2cccc3c(NC(=O)c4ccccc4)ccc1c23", "values": [{"measurement": "ΔTm", "setting": "[4]", "result": 2.17, "unit": "°C"}, {"measurement": "ΔTm", "setting": "[5]", "result": 4.1, "unit": "°C"}, {"measurement": "ΔTm", "setting": "[6]", "result": 2.17, "unit": "°C"}, {"measurement": "ΔTm", "setting": "[7]", "result": 0.93, "unit": "°C"}]}, {"smiles": "CN1C(=O)c2cccc3c(NS(=O)(=O)c4ccccc4)ccc1c23", "values": [{"measurement": "ΔTm", "setting": "[4]", "result": 5.72, "unit": "°C"}, {"measurement": "ΔTm", "setting": "[5]", "result": 1.93, "unit": "°C"}, {"measurement": "ΔTm", "setting": "[6]", "result": -0.31, "unit": "°C"}, {"measurement": "ΔTm", "setting": "[7]", "result": 1.51, "unit": "°C"}, {"measurement": "IC50", "setting": "[1]", "result": 709, "unit": "nM"}, {"measurement": "IC50", "setting": "[2]", "result": 2620, "unit": "nM"}]}, {"smiles": "CN1C(=O)c2cccc3c(S(=O)(=O)Nc4ccccc4)ccc1c23", "values": [{"measurement": "ΔTm", "setting": "[4]", "result": 2.19, "unit": "°C"}, {"measurement": "ΔTm", "setting": "[5]", "result": 0.47, "unit": "°C"}, {"measurement": "ΔTm", "setting": "[6]", "result": -0.03, "unit": "°C"}, {"measurement": "ΔTm", "setting": "[7]", "result": 0.53, "unit": "°C"}]}, {"smiles": "CC(Nc1ccc2c3c(cccc13)C(=O)N2C)c1ccccc1", "note": "(stereo unspecified)", "values": [{"measurement": "ΔTm", "setting": "[4]", "result": 3.15, "unit": "°C"}, {"measurement": "ΔTm", "setting": "[5]", "result": 4.33, "unit": "°C"}, {"measurement": "ΔTm", "setting": "[6]", "result": 0.13, "unit": "°C"}, {"measurement": "ΔTm", "setting": "[7]", "result": 0.55, "unit": "°C"}]}]}
